These substances were tested on p53 target genes in ES2 cells (assay: Induction of p53 target genes by qRT-PCR, ES2). Settings: peptide 5ug/ml, 18 hours; ES2 versus ES2 p53KO.
Assay type: cell-based, human
Experimental: Since p53 works primarily as a transcription factor, we tested the ability of lead peptides to induce p53 target gene activation. To that end we used H1299-tsp53^V135A cells, which express temperature sensitive (ts) p53 and allow examination of WT and mutant p53 states in the same cellular background. In the representative experiment shown in Figure 3A, cells were exposed to the indicated peptides (5μg/ml) and then either transferred to 32°C or placed back at 37°C. Cells were harvested 18 hours later, and mRNA was extracted and subjected to qRT-PCR analysis. Expression levels of 3 representative p53 target genes, p21, PUMA and Mdm2, were examined. Values were normalized to non-treated cells at 37°C, and expression at 32°C, where the ts-p53 is in a WT conformation, served as positive control. […] A similar analysis was performed on ES2 ovarian cancer cells, expressing endogenous mp53^S241F, compared to ES2 p53KO cells (Figure 3B).
Figure 3 Peptides binding to p53 and their effect on the expression of p53 target genes A. - Bar graph illustrating the effect of selected peptides on activation of mutp53 by measuring transactivation of p53 target genes as determined by qRT-PCR. H1299 cells stably transfected with mutp53 (ts) A135V were used. The indicated peptides were added directly to the medium at a concentration of 5ug/ml and cells were then either moved to 32°C or returned to 37°C. 18 hours later cells were harvested, extracted for RNA, cDNA was synthesis subjected to qrt time PCR analysis. The expression level of 3 representative p53 target genes, p21, PUMA and Mdm2, were examined. The figure illustrates the relative fold induction of transcription of the cells treated with the selected peptides as compared to non-treated cells. B. - Bar graph illustrating the effect of selected peptides on activation of mutp53 by measuring transactivation of p53 target genes as determined by qRT-PCR. ES2and ES2-p53KO cells were treated with indicated peptides 5ug/ml, for 18 hours. Cells were harvested, and cDNA was subjected to qRT-PCR analysis. Expression of 4 representative p53 target genes, p21, PUMA, Mdm2 and CD95, was examined. The figure illustrates the relative fold induction of transcription in cells treated with the selected peptides compared to non-treated cells. C. - Binding of mutp53 to promoters of representative p53 target genes in live cells, assessed by chromatin immunoprecipitation. BT-549 breast cancer cells endogenously expressing mutant p53^R249S were treated for 5 hours with a mix of 3 pCAPs - 250, 242 and 325. Cells treated with a mix of inert peptides served as a negative control. DNA cross-linked p53 was immunoprecipitated, and binding to the p53 responsive elements of the PUMA, p21, CD95 and MDM2 gene promoters was quantified by qPCR. Results were normalized to input total DNA. Cell extracts immunoprecipitated with beads without antibody (beads) served as negative controls. A genomic segment containing no p53RE served as negative control (white and gray bars). D. - ELISA analysis of the binding of WTp53 and mutp53 to lead peptides. Peptides were conjugated to the bottoms of the wells of 96 well plates, employing a commercial conjugation kit (TAKARA). Control wells were coated with the αp53 monoclonal antibodies PAb1801, PAb1620 and PAb240. Recombinant WTp53 or mutp53R175H was added to the wells and incubated with the bound peptides or antibodies. Where indicated, soluble peptides were added as competitors (+ comp), to confirm the specificity of the binding to p53. pCAP-76 served as a negative control peptide. After removal of recombinant protein, plates were washed and incubated with αp53-HRP followed by TMB and optical density determination. Results are presented as relative absorbance at 450nm. […] See Materials and Methods for details.
Figure 4 Peptides trigger apoptosis in correlation to activation of WTp53 target genes A., C. - Apoptosis of ES2 cells treated with peptides. […]
With “WNHHHSTPHPAHRRRRRR [pCAP-97R, pCAP-97 with poly arginine tail]” the “expression of the p53 target genes, ES2” value was “significant increase”.
With “LRCLLLLIGRVGRRRRRRRR [pCAP-24R, pCAP-24 with poly arginine tail]” the “expression of the p53 target genes, ES2” value was “significant increase”.
With “SFILFIRRGRLGRRRRRRRRR [pCAP-60R, pCAP-60 with poly arginine tail]” the “expression of the p53 target genes, ES2” value was “significant increase”.
In the case of IRGRIIR [pCAP-54], the “expression of the p53 target genes, ES2” value was “significant increase”.

Same assay, conditions: score 0-6 compared to positive control; induction of p53 target genes by qRT-PCR
For WNHHHSTPHPAH [pCAP-97], the “PCR ES2” value was 5.
In the case of myr-RRKHNKHRPEPDSDER [pCAP-221], the “PCR ES2” value was 4.
With “myr-RRKILFIRLMHNKH [pCAP-227, myristoylated peptide, similarity to GAS2]” the “PCR ES2” value was 5.
“myr-PRVLPSPHTIHPSQYP [pCAP-229, myristoylated peptide, similarity to HIPK2]” was tested, and the “PCR ES2” value was 3.
For “WNHHHSTPHPAHRRRRRR [pCAP-97R, pCAP-97 with poly arginine tail]”, the “PCR ES2” value was 5.
For “EVTFRHSVV [pCAP-1, randomly selected peptide used as inert comparison]”, the “PCR ES2” value was 3.
In the case of YRRLLIGMMWRRRRRRRRR [pCAP-68], the “PCR ES2” value was 3.
“LRCLLLLIGRVGRRRRRRRR [pCAP-24R, pCAP-24 with poly arginine tail]” was tested, and the “PCR ES2” value was 4.
In the case of HANLHHT [pCAP-87], the “PCR ES2” value was 2.
With myr-RRLIVRILKLPNPPER [pCAP-242] the “PCR ES2” value was 4.
With HHPWTHHQRWS [pCAP-20] the “PCR ES2” value was 4.

— paper PMC4914250, “Cancer therapeutic approach based on conformational stabilization of mutant p53 protein by small peptides” (Oncotarget, 2016)
